Laboratory results published in publication PMC6242907, “Molecular basis of maintaining an oxidizing environment under anaerobiosis by soluble fumarate reductase” (Nature Communications, 2018).

Tests used:
[1] = biological target: T1, Osm1 (Saccharomyces cerevisiae, UniProt P21375, S78K/P162R); experiment: isothermal titration calorimetry; conditions: second FAD-binding pocket; 1 mM FAD injected into 28 µM double mutant
T1 construct: residues 32-501, N-terminal His6 tag and thrombin site in pET28a, E. coli BL21(DE3); tag removed by trypsin for crystals

[2] = biological target: T2, Ero1 (Saccharomyces cerevisiae, UniProt Q03103); experiment: free flavin reduction at […] nm; format: biochemical; conditions: free FAD as electron acceptor; DTT and thioredoxin as reductant, airtight, oxygen-depleted
T2 construct: residues 56-424, His6-MBP fusion from E. coli Origami B(DE3), H6-MBP cleaved off by TEV protease; FAD-containing
T2 sequence (Q03103 56-424): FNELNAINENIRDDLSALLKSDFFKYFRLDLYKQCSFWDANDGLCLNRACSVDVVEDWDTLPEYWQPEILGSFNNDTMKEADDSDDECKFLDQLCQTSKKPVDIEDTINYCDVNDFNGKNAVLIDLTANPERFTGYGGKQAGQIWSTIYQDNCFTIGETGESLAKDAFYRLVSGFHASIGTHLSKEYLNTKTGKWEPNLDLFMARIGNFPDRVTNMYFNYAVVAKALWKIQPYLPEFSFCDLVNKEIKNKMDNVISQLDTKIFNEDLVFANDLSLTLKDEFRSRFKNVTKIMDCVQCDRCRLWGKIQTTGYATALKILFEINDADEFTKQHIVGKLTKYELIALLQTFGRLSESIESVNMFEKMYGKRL

[3] = biological target: T3, Osm1 (Saccharomyces cerevisiae, UniProt P21375); experiment: X-ray crystal structure, […] Å; format: binding
T3 construct: residues 32-501, N-terminal His6 tag and thrombin site in pET28a, E. coli BL21(DE3); tag removed by trypsin for crystals

[4] = biological target: T3, Osm1; experiment: isothermal titration calorimetry; format: binding
Source text: isothermal titration calorimetry on Osm1 | Injection of FAD into the ITC sample cell containing holo-Osm1 created an exothermic response

T3 sequence (P21375 32-501): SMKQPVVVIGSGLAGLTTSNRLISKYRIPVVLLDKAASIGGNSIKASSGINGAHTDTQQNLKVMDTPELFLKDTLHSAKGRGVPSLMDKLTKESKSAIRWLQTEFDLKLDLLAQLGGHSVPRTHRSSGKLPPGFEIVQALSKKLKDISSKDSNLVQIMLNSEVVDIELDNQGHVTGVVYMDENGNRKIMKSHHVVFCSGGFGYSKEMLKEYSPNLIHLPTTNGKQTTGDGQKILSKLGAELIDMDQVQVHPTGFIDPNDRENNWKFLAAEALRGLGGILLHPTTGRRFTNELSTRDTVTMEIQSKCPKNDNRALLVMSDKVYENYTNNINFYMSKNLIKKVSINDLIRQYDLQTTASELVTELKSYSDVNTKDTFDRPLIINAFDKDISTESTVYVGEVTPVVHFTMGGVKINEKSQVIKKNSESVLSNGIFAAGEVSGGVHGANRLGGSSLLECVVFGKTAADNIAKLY
T1 sequence (P21375 32-501 S78K/P162R): as the sequence (P21375 32-501) above, with S47K, P131R counted along it

Row | SMILES | no detectable thermal response [1] | free flavin reduction at 450 nm [2] | X-ray crystal structure, 1.8 Å ([3]; first (cofactor) site, non-covalent, complex with fumarate) | Kd [4] | X-ray crystal structure, 1.8 Å ([3]; active site next to the isoalloxazine ring of cofactor FAD)
1 | Cc1cc2nc3c(=O)[nH]c(=O)nc-3n(C[C@H](O)[C@H](O)[C@H](O)COP(=O)(O)OP(=O)(O)OC[C@H]3O[C@@H](n4cnc5c(N)ncnc54)[C@H](O)[C@@H]3O)c2cc1C [FAD] | injection of FAD into the S78K/P162R mutant did not show any detectable thermal response | Ero1 could only use free FAD, but not FMN or riboflavin, under oxygen-depleted conditions | residues, including A45, K66, N73, S74, S79, G80, V194, D260, E467, S482, and L483 | 4.92 µM | 
2 | O=C(O)/C=C/C(=O)O [fumarate] |  |  |  |  | S78, S79, H281, R326, H435, R477, and G480 from Osm1 are involved in the binding of fumarate
